Source: PMC9019904, “AD Informer Set: Chemical tools to facilitate Alzheimer's disease drug discovery” (Alzheimer's & Dementia : Translational Research & Clinical …, 2022)
Converted amounts (≈) assume the structure as drawn. Where two headings read alike, the source gives them in different places. Blank lines part the entries; values can stand above or below the compound they belong to.

Key:
[1] = system: protein product expressed by the gene target; settings: cited from earlier work
[2] = Kinetic solubility in aqueous buffer pH 7.4 by total chemiluminescent nitrogen determination (Analiza); settings: aqueous buffer, pH 7.4, aqueous buffer, kinetic from dmso stock
[3] = system: HMC3 (human microglia) cell line; assay: pHrodo-myelin phagocytosis/cell viability high content imaging assay: phagocytosis signal; assay type: cell-based
How it was run: (§1)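 Mouse BV2 and human HMC3 microglia given pHrodo-myelin; phagocytosis and cell viability imaged together by high content imaging about 22 hours after myelin addition. Three measurements extracted, including intensity increase and decrease marking early and later apoptosis.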

[4] = system: cellular system; settings: published cellular activity at 10 μM; cited from earlier work
[5] = physchem; settings: pH 7.4, aqueous buffer, kinetic from dmso stock
[6] = system: BV2 (mouse microglia) cell line; assay: pHrodo-myelin phagocytosis/cell viability high content imaging assay: phagocytosis signal; assay type: cell-based
How it was run: as §1

[7] = system: BV2 (mouse microglia) cell line; assay: pHrodo-myelin phagocytosis/cell viability high content imaging assay: viability (cell count, nuclear area, nuclear intensity)
How it was run: (§2)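 Duplicate single-point screen at 10 μM over 48 h, combined with pHrodo-myelin phagocytosis during the last 20 h. Cytotoxicity is taken from imaged cell counts and nuclear intensity changes, normalized to untreated wells as % control.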

[8] = system: HMC3 (human microglia) cell line; assay: as above; settings: HMC3 cells
How it was run: as §2

[9] = gene target APP, ref PubMed 22323718
[10] = BV2 cells, cell count <70% control
[11] = BV2 cells, 10 uM compound, 48 hours treatment
[12] = 10 uM compound, 48 hours treatment

solubility kinetic [2]: 154 µM (≈ 63.3 µg/mL)
SMILES: CN1C(=N)N[C@](C)(c2cc(NC(=O)c3ccc(F)cn3)ccc2F)CS1(=O)=O [Verubecestat (MK-8931)]
Reported on-target biochemical potency (nM): BACE1 ([1]; gene target BACE1, ref PubMed 27418961, 27023706): 1.8 nM
Reported on-target biochemical potency (nM): BACE2 ([1]; gene target BACE2, ref PubMed 27418961, 27023706): 0.37 nM

SMILES: O=C(Nc1ccc([N+](=O)[O-])cc1Cl)c1cc(Cl)ccc1O [Niclosamide]
Inhibition of human microglial phagocytosis at 10 μM (<70% control) ([3]; HMC3 cells, 10 μM): Y (The compound was found to inhibit phagocytosis (response threshold: <70% control) when human immortalized microglial cells were dosed at 10 μM (Y: yes))
Reported as cell active (<10 μM) [4]: Y (Published data supports that the compound is active in a cellular system when dosed at 10 μM (Y/N))
solubility kinetic [5]: 17.5 µM (≈ 5.72 µg/mL)

solubility kinetic [2]: 176 µM (≈ 63.8 µg/mL)
SMILES: CC(C)[C@H](O)C(=O)N[C@@H](C)C(=O)N[C@@H]1C(=O)N(C)CCc2ccccc21 [Semagacestat (LY450139)]
Stimulation of mouse microglial phagocytosis at 10 μM (>150% control) ([6]; BV2, 10 μM): Y (The compound was found to stimulate phagocytosis (response threshold: >150% control) when murine immortalized microglial cells were dosed at 10 μM (Y: yes))
Reported on-target biochemical potency (nM): Aβ38 [1, 9]: 12 nM
Reported on-target biochemical potency (nM): Aβ40 [1, 9]: 12.1 nM
Reported on-target biochemical potency (nM): Aβ42 [1, 9]: 10.9 nM

solubility kinetic [5]: 178 µM (≈ 55.9 µg/mL)
SMILES: NC(=O)[C@@H]1CC[C@H](c2ccc(OCc3ccccc3F)cc2)N1 [Raxatrigine]
Stimulation of mouse microglial phagocytosis at 10 μM (>150% control) ([6]; BV2 cells, 10 μM): Y (The compound was found to stimulate phagocytosis (response threshold: >150% control) when murine immortalized microglial cells were dosed at 10 μM (Y: yes))
Reported as cell active (<10 μM) [4]: Y (Published data supports that the compound is active in a cellular system when dosed at 10 μM (Y/N))

solubility kinetic [2]: 31.1 µM (≈ 9.81 µg/mL)
SMILES: C[C@H](N/C(=N\c1cccc2ncccc12)NC#N)c1ccccc1 [A-804598]
Inhibition of human microglial phagocytosis at 10 μM (<70% control) ([3]; 10 μM, HMC3): Y (The compound was found to inhibit phagocytosis (response threshold: <70% control) when human immortalized microglial cells were dosed at 10 μM (Y: yes))
Reported on-target biochemical potency ([1]; target P2X7, ref PubMed 18602931, 28716092, 28871219, 29934546): 10 nM

SMILES: O=c1[nH]c2ccccc2n1C1CCN(CCCC(c2ccc(F)cc2)c2ccc(F)cc2)CC1 [Pimozide]
Reported as cell active (<10 μM) [4]: Y (Published data supports that the compound is active in a cellular system when dosed at 10 μM (Y/N))
solubility kinetic [5]: 2.9 µM (≈ 1.34 µg/mL)

solubility kinetic [2]: 37.8 µM (≈ 9.78 µg/mL)
SMILES: O=C(N/N=C/c1ccc(Cl)cc1)c1ccccc1 [Compound 1e]
Reported on-target biochemical potency ([1]; gene target CTSH, ref PubMed 25181676): 440 nM

SMILES: Cl.NC(=O)c1cnc(N[C@@H]2CCCC[C@@H]2N)nc1Nc1cccc(-n2nccn2)c1 [P505-15 (PRT06207 HCl)]
Inhibition of mouse microglial phagocytosis at 10 μM (<70% control) ([6]; BV2 cells, 10 μM): Y (The compound was found to inhibit phagocytosis (response threshold: <70% control) when murine immortalized microglial cells were dosed at 10 μM (Y: yes))
Inhibition of human microglial phagocytosis at 10 μM (<70% control) ([3]; HMC3 cells, 10 μM): Y (The compound was found to inhibit phagocytosis (response threshold: <70% control) when human immortalized microglial cells were dosed at 10 μM (Y: yes))
Reported as cell active (<10 μM) [4]: Y (Published data supports that the compound is active in a cellular system when dosed at 10 μM (Y/N))
solubility kinetic [5]: 118 µM

solubility kinetic [2]: 1.9 µM (≈ 0.805 µg/mL)
SMILES: N#CC(CCCN1CCN(/N=C/c2cccnc2)CC1)(c1ccccc1)c1ccccc1 [SC-26196]
Reported on-target biochemical potency ([1]; gene target FADS2, ref PubMed 18719641, 23112819, 10419129): 200 nM

solubility kinetic [5]: 141 µM (≈ 49 µg/mL)
SMILES: Cc1cc(Nc2nc(N[C@@H](C)c3ncc(F)cn3)ncc2Cl)n[nH]1 [AZD-1480]
Mouse microglial cytotoxicity at 10 μM (<70% control) [7, 10]: Y (The compound was found to be cytotoxic (cell count threshold: <70% control) when murine immortalized microglial cells were dosed at 10 μM (Y: yes))
Stimulation of mouse microglial phagocytosis at 10 μM (>150% control) ([6]; BV2 cells, 10 μM): Y (The compound was found to stimulate phagocytosis (response threshold: >150% control) when murine immortalized microglial cells were dosed at 10 μM (Y: yes))
Reported as cell active (<10 μM) [4]: Y (Published data supports that the compound is active in a cellular system when dosed at 10 μM (Y/N))

SMILES: COc1nc(OCc2cccc(-c3ccccc3)c2C)ccc1CNCCNC(C)=O.Cl [BMS-202]
Mouse microglial cytotoxicity at 10 μM (<70% control) [7, 10]: Y (The compound was found to be cytotoxic (cell count threshold: <70% control) when murine immortalized microglial cells were dosed at 10 μM (Y: yes))
Human microglial cytotoxicity at 10 μM (<70% control) ([8]; 10 μM, cell count <70% control): Y (The compound was found to be cytotoxic (cell count threshold: <70% control) when human immortalized microglial cells were dosed at 10 μM (Y: yes))
Inhibition of mouse microglial phagocytosis at 10 μM (<70% control) ([6]; BV2 cells, 10 μM): Y (The compound was found to inhibit phagocytosis (response threshold: <70% control) when murine immortalized microglial cells were dosed at 10 μM (Y: yes))
Inhibition of human microglial phagocytosis at 10 μM (<70% control) ([3]; HMC3 cells, 10 μM): Y (The compound was found to inhibit phagocytosis (response threshold: <70% control) when human immortalized microglial cells were dosed at 10 μM (Y: yes))
Reported as cell active (<10 μM) [4]: Y (Published data supports that the compound is active in a cellular system when dosed at 10 μM (Y/N))
solubility kinetic [5]: 97.9 µM

solubility kinetic [2]: < 1.1 µM
SMILES: CCOC(=O)N1c2ccc(C(F)(F)F)cc2[C@@H](N(Cc2cc(C(F)(F)F)cc(C(F)(F)F)c2)C(=O)OC)C[C@H]1CC [Torcetrapib]
Reported on-target biochemical potency ([1]; gene target CETP, ref Probe Miner, PubMed 17984165, 19164467): 7.72 nM

solubility kinetic [5]: 76.4 µM
SMILES: Cc1ccc(S(=O)(=O)O)cc1.Nc1n[nH]cc1-c1cc(Cl)ccc1Oc1cc(F)c(S(=O)(=O)Nc2cscn2)cc1Cl [PF-05089771]
Reported as cell active (<10 μM) [4]: Y (Published data supports that the compound is active in a cellular system when dosed at 10 μM (Y/N))

SMILES: CCN(CC)Cc1ccc(C(=O)N(CCc2ccccc2OC)[C@@H]2CCNC2)cc1.Cl.Cl [PF429242]
Stimulation of mouse microglial phagocytosis at 10 μM (>150% control) ([6]; BV2 cells, 10 μM): Y (The compound was found to stimulate phagocytosis (response threshold: >150% control) when murine immortalized microglial cells were dosed at 10 μM (Y: yes))
Inhibition of human microglial phagocytosis at 10 μM (<70% control) ([3]; HMC3 cells, 10 μM): Y (The compound was found to inhibit phagocytosis (response threshold: <70% control) when human immortalized microglial cells were dosed at 10 μM (Y: yes))
Reported as cell active (<10 μM) [4]: Y (Published data supports that the compound is active in a cellular system when dosed at 10 μM (Y/N))
solubility kinetic [5]: 131 µM

solubility kinetic [2]: 48.1 µM (≈ 21 µg/mL)
SMILES: O=c1ncn2nc(Sc3ccc(F)cc3F)ccc2c1-c1c(Cl)cccc1Cl [Neflamapimod (VX-745)]
Stimulation of mouse microglial phagocytosis at 10 μM (>150% control) ([6]; 10 μM, BV2): Y (The compound was found to stimulate phagocytosis (response threshold: >150% control) when murine immortalized microglial cells were dosed at 10 μM (Y: yes))
Reported on-target biochemical potency ([1]; target MAPK11, ref PubMed 24900264): 220 nM
Reported on-target biochemical potency ([1]; target MAPK14, ref PubMed 24900264): 10 nM

SMILES: CC[C@H](C)[C@H](N)C(=O)NCCN1CCOCC1.Cl.Cl [LM11A-31 dihydrochloride]
Stimulation of mouse microglial phagocytosis at 10 μM (>150% control) ([6]; BV2 cells, 10 μM): Y (The compound was found to stimulate phagocytosis (response threshold: >150% control) when murine immortalized microglial cells were dosed at 10 μM (Y: yes))
Reported as cell active (<10 μM) [4]: Y (Published data supports that the compound is active in a cellular system when dosed at 10 μM (Y/N))
solubility kinetic [5]: 178 µM

solubility kinetic [5]: 119 µM
SMILES: Cl.O=C(NCCCNc1nc(Nc2cccc(CN3CCOCC3)c2)ncc1C1CC1)C1CCC1 [UNC10302867A, reference compound]
Mouse microglial cytotoxicity at 10 μM (<70% control) ([7]; BV2): Y (The compound was found to be cytotoxic (cell count threshold: <70% control) when murine immortalized microglial cells were dosed at 10 μM (Y: yes))
1. Cell count (% control) [7, 11]: 17.6 % control
2. Nuclear Area (% Control) [7, 11]: 154.0 % Control
3. Nuclear DNA Intensity (% control) [7, 11]: 122.3 % control
1. Cell count (% control) [8, 12]: 81.1 % control
2. Nuclear Area (% Control) [8, 12]: 129.3 % Control
3. Nuclear DNA Intensity (% control) [8, 12]: 124.9 % control
Stimulation of mouse microglial phagocytosis at 10 μM (>150% control) ([6]; 10 μM, BV2): Y (The compound was found to stimulate phagocytosis (response threshold: >150% control) when murine immortalized microglial cells were dosed at 10 μM (Y: yes))
phagocytosis in mouse microglial cells (< 70% control inhibition, > 150% control stimulation) ([6]; BV2, 10 μM, pHrodo-myelin): stimulator of phagocytosis
4. Phagocytosis (% control) ([6]; BV2 cells, 10 uM compound, 48 hours treatment, pHrodo-myelin final 20 hours): 282.0 % control
Stimulation of human microglial phagocytosis at 10 μM (>150% control) ([3]; 10 μM, HMC3): Y (The compound was found to stimulate phagocytosis (response threshold: >150% control) when human immortalized microglial cells were dosed at 10 μM (Y: yes))
phagocytosis in human microglial cells (< 70% control inhibition, > 150% control stimulation) ([3]; HMC3, 10 μM, pHrodo-myelin): stimulator of phagocytosis
4. Phagocytosis (% control) ([3]; HMC3 cells, 10 uM compound, 48 hours treatment, pHrodo-myelin final 20 hours): 290.0 % control

SMILES: Cc1cc(SCc2sc(-c3ccc(C(F)(F)F)c(F)c3)nc2C)ccc1OCC(=O)O [GW0742]
Reported as cell active (<10 μM) [4]: Y (Published data supports that the compound is active in a cellular system when dosed at 10 μM (Y/N))
solubility kinetic [5]: 145 µM (≈ 68.3 µg/mL)
